Source: patent publication US10131635B2, “Compositions and methods of using the compositions for plaque softening” (ALUMEND, LLC, priority 2013, dated 2018)

Assays:
[1] = test system: calcified plaque in postmortem diseased femoral arteries; assay: IVUS analysis of human cadaveric arterial samples (echogenicity)
Text: The following equipment was used in this Example: IVUS, Boston Scientific iLab 120 CARTR, UPN Product number: H749iLab120CARTRO, manufactured April 2011, Serial number 7347. The software is iReview version 1.0. The catheter is Boston Scientific Atlantis SR Pro 40 MHz Coronary Imaging Catheter, catalog number 38942, 3.6 F×135 cm.
IVUS images have identified different types of plaque, e.g., soft, mixed, hard, and calcified. M. Sahara, et al., “Soft Plaque Detected on Intravascular Ultrasound Is the Strongest Predictor of In-Stent Restenosis: an Intravascular Ultrasound Study,” European Heart Journal, 25: 2026-2033 (2004), the disclosure of which is hereby incorporated by reference. For example, calcified plaque has been identified by two characteristics, i.e., a high echogenicity resulting in an intense reflection (bright white) and the presence of an acoustic shadow behind the plaque because the ultrasound cannot penetrate the calcified plaque.
Postmortem diseased femoral arteries (both left and right) were received approximately 16 hours after the time of death. The samples were inspected to assess the level of disease. When palpated both the right and left arteries were extremely hard and rigid throughout the entire length of both arteries. Occlusion was visually judged as ranging from 20-60%. The artery was placed in PBS and IVUS pullback (0.5 mm/s) was completed three times (PRE 1, PRE 2, PRE 3). […] The artery was thoroughly rinsed with PBS to remove any excess plaque-softening compound. The artery was then placed into PBS and an IVUS pullback was conducted three times (SOAK 1, SOAK 2, SOAK 3). A balloon angioplasty catheter was placed into the artery and inflated to the reference vessel diameter (RVD) without any overstrech. A radially emitting light fiber was inserted into the catheter and centered in the angioplasty balloon. The composition was activated by exposure to blue light (447 nm) at an intensity of 1800 mW for 60 seconds. The balloon catheter was removed and an IVUS pullback was completed three times (POST 1, POST 2, POST 3).
Each frame of each pullback (PRE 1, PRE 2, PRE 3, SOAK 1, SOAK 2, SOAK 3, POST 1, POST 2, POST 3) was analyzed and calcified plaque was identified including the acoustic shadow behind each area of plaque. FIGS. 15a and 15b are the IVUS images from frame 921 of PRE 1 and illustrate the existence of plaque. For each frame, the intensity of each gray pixel (based upon 255 shades of gray, “AVI” format and 521×521 pixels) within the arterial wall was determined. FIG. 17 is a histogram illustrating the gray scale of frame 921, PRE 1, wherein the y-axis is the pixel count and the x-axis is the pixel intensity. So, for example, there were a lot of pixels having a pixel intensity of 16 and very few pixels having a pixel intensity of 168. It is known that the relative amount of hypo-echogenic and hyper-echogenic reflections can be used to measure the change in calcified plaque. See S. Brugaletta, et al., “Serial In Vivo Intravascular Ultrasound-Based Echogenicity Changes of Everolimus-eluting Bioresorbable Vascular Scaffold During the First 12 Months After Implantation,” JACC: Cardiovascular Interventions, 4 (12):1281-1289 (2011), the disclosure of which is hereby incorporated by reference. For example, it is known that pixels with a gray scale intensity of 92 or lower were judged to be hypo-echogenic and those with a gray scale intensity of 93 or higher were judged to be hyper-echogenic. To be clear, in the instant Example, the mean gray value of the adventitia was used to classify tissue components as either hypo- or hyper-echogenic. One of ordinary skill in the art could easily determine the gray scale threshold for any data set in order to classify tissue components as either hypo- or hyper-echogenic.
The pixel intensity of the entire IVUS pullback data was analyzed as a single data set. […]

[2] = Linker solution hydrolysis (release of drug mimic, HPLC, first order rate constant); type: physicochemical; conditions: 37° C.
Procedure: The hydrolysis rate of a linker was studied without attachment to a naphthalimide compound or tissue attachment under physiological conditions. The work verified the expected hydrolysis rate and when combined with ex vivo data allows the influence of the tissue on the hydrolysis rate to be determined.
A 20 mg/mL stock solution of a drug mimic, such as an FITC derivative, was prepared by weighing out approximately 20 mg of material and diluting with 1 mL of H20. The release rate of each compound, the free mimic from its respective linker, was studied in duplicate as a function of time and pH (phosphate buffered saline (PBS) at pH=1, pH=7.4, and pH=10). The starting concentration for each preparation was 400 μg/mL of drug mimic with attached linker (20 μL of stock solution diluted with 980 μL of hydrolysis PBS). In order to more accurately mimic clinical conditions samples were prepared and stored in a 37° C. oven with slow agitation using a rotating mixer until analyzed using HPLC. The concentration of the target complex was determined in duplicates at multiple time points (t=0, 8, 24, 48, 72, 144, 216 hours) using the HPLC conditions below and quantitation using a standard curve. A 2 mg/mL stock solution of the target complex was prepared by weighing out approximately 20 mg of target complex and diluting with 10 mL of H2O. The following concentrations from the stock solution were prepared by performing serial dilutions in H2O:
Quantitation using a standard curve was used to determine the amount of drug mimic released (μg) at each time point and duplicate sample preparations at each time point were averaged. […] The detection limit of the method was 1 μg/mL. The standard curve for 3-phenylpropanol was also linear over the range of 1 μg/mL to 100 μg/mL with a detection limit of the method at 1 μg/mL.
Using the HPLC release data calculated for the free Bn and 3PP, shown below, kinetic curves were plotted (concentration vs time) for each compound using PSI Plot. The concentration was fit to a first order kinetic equation, where CT=CF−Cce^−kt (CT is the concentration at each time point (μg), CF is the final concentration (μg), Cc is the change in concentration (μg), and k is the rate constant (hr^−1). If the reaction rate didn't display first order kinetics (ie: there was a systematic deviation between the experimental points and the calculated rate constant) other kinetic models were examined. Typically data was collected until at least 90% of the expected product was released. A sample kinetic curve is shown in FIG. 15B.
The HPLC method was able to determine the identity of each compound and the component linker and drug mimic by the retention time as shown in the Table below. • Analytical Column: Alltima HP Rocket C18 3μ 53 mm×7 mm • Mobile Phase: A: 0.1% Trifluoroacetic acid(aq) (TFA), • B: 9:1 Acetonitrile:Water (0.1% TFA) • Gradient: 95% A hold for 1 minute, then ramp to 65% B at 7 minutes, hold for 0.5 minutes • (Equilibration time 5 minutes) • Detector: PDA detector at 440 nm Fluorescence detector excitation wavelength at nm emission wavelength at nm • Injection Volume: 20 μL • Flow Rate: 2.5 mL/min
Using the concentration versus time data, a rate constant was calculated for each compound at various pHs. […] The enhanced rate for the hydrolysis of the Gly/Bn is likely due to the formation of an internal 5 membered ring that would be autocatalytic.

artery = assay: Arterial compression by other photoactivated material; conditions: FIG. 13
Procedure: Singlet oxygen generating species, such as Rose Bengal, riboflavin, and methylene blue were tested to determine if they would be effective at arterial compression.

## Nc1ccc2c3c(cccc13)C(=O)NC2=O [4-amino-1,8-naphthalimide]
[1]; after soak, balloon and light activation
  flexibility of artery after treatment: more flexible and softer
[1]; entire IVUS pullback data, POST (soak plus balloon and 447 nm 1800 mW 60 seconds)
  Hypo-Echogenic pixels/Hyper-Echogenic pixels: 5.011
[1]; entire IVUS pullback data, SOAK (2.5 mM, 5 minutes)
  Hypo-Echogenic pixels/Hyper-Echogenic pixels: 4.699
[1]; frame 921, POST
  Hypo-Echogenic pixels/Hyper-Echogenic pixels: 12.556
[1]; frame 921, SOAK
  Hypo-Echogenic pixels/Hyper-Echogenic pixels: 7.500
[1]; frame 2925, POST
  Hypo-Echogenic pixels/Hyper-Echogenic pixels: 21.050
[1]; frame 2925, SOAK
  Hypo-Echogenic pixels/Hyper-Echogenic pixels: 9.043

## NCCCC(=O)OCCCc1ccccc1 [GABA/3PP, 3-Phenylpropyl GABA]
[2]; pH 1, PBS
  hydrolysis rate constant k: 0.034 h⁻¹
[2]; pH 7.4, PBS
  hydrolysis rate constant k: 0.010 h⁻¹
[2]; pH 10, PBS
  hydrolysis rate constant k: 0.124 h⁻¹

## NCCCC(=O)OCc1ccccc1 [GABA/Bn, Benzyl GABA]
[2]; pH 1, PBS
  hydrolysis rate constant k: 0.026 h⁻¹
[2]; pH 7.4, PBS
  hydrolysis rate constant k: 0.011 h⁻¹
[2]; pH 10, PBS
  hydrolysis rate constant k: 0.226 h⁻¹

## NCC(=O)OCCCc1ccccc1 [Gly/3PP, 3-Phenylpropyl Glycinate]
[2]; pH 1, PBS
  hydrolysis rate constant k: 0.004 h⁻¹
[2]; pH 7.4, PBS
  hydrolysis rate constant k: 0.082 h⁻¹
[2]; pH 10, PBS
  hydrolysis rate constant k: 0.155 h⁻¹

## NCC(=O)OCc1ccccc1 [Gly/Bn, Benzyl Glycinate]
[2]; pH 1, PBS
  hydrolysis rate constant k: 0.002 h⁻¹
[2]; pH 7.4, PBS
  hydrolysis rate constant k: 0.311 h⁻¹
[2]; pH 10, PBS
  hydrolysis rate constant k: 0.156 h⁻¹

## O=C([O-])c1c(Cl)c(Cl)c(Cl)c(Cl)c1-c1c2cc(I)c(=O)c(I)c-2oc2c(I)c([O-])c(I)cc12.[Na+].[Na+] [Rose Bengal]
artery
  efficacy at arterial compression: No efficacy was observed

## CN(C)c1ccc2nc3ccc(=[N+](C)C)cc-3sc2c1 [methylene blue]
artery
  efficacy at arterial compression: No efficacy was observed

## Cc1cc2nc3c(=O)[nH]c(=O)nc-3n(C[C@H](O)[C@H](O)[C@H](O)CO)c2cc1C [riboflavin]
artery
  efficacy at arterial compression: No efficacy was observed
